The text below walks through data of PubChem BioAssay AID220 (DTP/NCI, 2004).

The test has as its system CD8F1 mice, subcutaneous mammary adenocarcinoma, T/C%. The test is described as follows: NCI In Vivo Anticancer Drug Screen. Data for tumor model Mammary Adenocarcinoma CD8F1 (subcutaneous) in CD8F1. Conditions: higher = larger tumour. In short, it runs like this:
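Transplantable tumors were established in mice, animals were dosed with compound or vehicle, and survival or tumor size was then measured in both groups. The treated result was divided by the control result.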

The mark [1] stands for this setting: endpoint: median tumor weight (est.), dose: 12.5 mg/kg/injection, schedule: Q07DX005 (ip), vehicle: saline with Tween-80.
[2] abbreviates: endpoint: median tumor weight (est.), dose: 25.0 mg/kg/injection, schedule: Q07DX005 (ip), vehicle: saline with Tween-80.
The mark [3] stands for this setting: endpoint: median tumor weight change, dose: 62.5 mg/kg/injection, schedule: Q01DX001 (ip), vehicle: saline with Tween-80.
Where [4] appears, read: endpoint: median tumor weight change, dose: 125.0 mg/kg/injection, schedule: Q01DX001 (ip), vehicle: saline with Tween-80.
Setting [5] is: endpoint: median tumor weight (est.), dose: 12.5 mg/kg/injection, schedule: Q07DX005 (ip), vehicle: Klucel (hydroxypropylcellulose) (HPC).
Setting [6] is: endpoint: median tumor weight (est.), dose: 25.0 mg/kg/injection, schedule: Q07DX005 (ip), vehicle: Klucel (hydroxypropylcellulose) (HPC).
Where [7] appears, read: endpoint: median tumor weight (est.), dose: 50.0 mg/kg/injection, schedule: Q07DX005 (ip), vehicle: Klucel (hydroxypropylcellulose) (HPC).
Where [8] appears, read: endpoint: median tumor weight (est.), dose: 100.0 mg/kg/injection, schedule: Q07DX005 (ip), vehicle: Klucel (hydroxypropylcellulose) (HPC).

The structures appear in SMILES notation. Values joined by “and” are separate entries in the source; they are usually repeats but may differ in a detail not shown here. Equal entries are not always repeated. Inconclusive results are not listed.

Regarding `c1ccc2c(c1)nnn1c3cnccc3nc21`, the T/C (endpoint: median tumor weight (est.), dose: 3.12 mg/kg/injection, schedule: Q07DX005 (ip), vehicle: saline with Tween-80) is 115 % of control; the T/C (endpoint: median tumor weight (est.), dose: 6.25 mg/kg/injection, schedule: Q07DX005 (ip), vehicle: saline with Tween-80) was 85 % of control; the T/C under setting [1] is 105 % of control; the T/C under setting [2] is 124 % of control.
In the case of `O=[N+]([O-])c1ccc(Sc2ccncn2)c([N+](=O)[O-])c1`, the T/C was 108 % of control under setting [3] and 62 % of control under setting [4].
In the case of `Clc1ccc(C(c2ccccc2Cl)C(Cl)Cl)cc1` (stereo unspecified), the T/C under setting [5] was 124 % of control, the T/C under setting [6] is 118 % of control, the T/C under setting [7] was 175 % of control and the T/C under setting [8] is 92 % of control.
In the case of `CCCCOCN(COCCCC)C(C)Cc1ccccc1` (stereo unspecified), the T/C was 100 % of control under setting [3]; 85 % of control under setting [4]; 110 % of control (endpoint: median tumor weight change, dose: 250.0 mg/kg/injection, schedule: Q01DX001 (ip), vehicle: saline with Tween-80); 80 % of control (endpoint: median tumor weight change, dose: 1000.0 mg/kg/injection, schedule: Q01DX001 (ip), vehicle: saline with Tween-80).
Take `Nc1ncnc2c1ncn2C1C=C(CO)C(O)C1O` (stereo unspecified): the T/C is 63 % of control (endpoint: median tumor weight change, dose: 2.5 mg/kg/injection, schedule: Q01DX001 (ip), vehicle: saline); 113 % of control (endpoint: median tumor weight change, dose: 2.5 mg/kg/injection, schedule: Q01DX001 (ip), vehicle: suspension in saline); 107 % of control (endpoint: median tumor weight change, dose: 5.0 mg/kg/injection, schedule: Q01DX001 (ip), vehicle: saline); 115 % of control (endpoint: median tumor weight change, dose: 5.0 mg/kg/injection, schedule: Q01DX001 (ip), vehicle: suspension in saline); 100 % of control (endpoint: median tumor weight change, dose: 10.0 mg/kg/injection, schedule: Q01DX001 (ip), vehicle: saline); 86 % of control (endpoint: median tumor weight change, dose: 20.0 mg/kg/injection, schedule: Q01DX001 (ip), vehicle: saline). For the same compound, the T/C was 39 % of control (endpoint: median tumor weight change, dose: 20.0 mg/kg/injection, schedule: Q01DX001 (ip), vehicle: suspension in saline) and 40 % of control (endpoint: median tumor weight change, dose: 40.0 mg/kg/injection, schedule: Q01DX001 (ip), vehicle: saline).
In the case of `COC1=C(OC)C(=O)C(SC/C=C(\C)CCCC(C)CCCC(C)CCCC(C)C)=CC1=O` (stereo unspecified), the T/C is 164 % of control under setting [1]; 110 % of control under setting [2]; 32 % of control (endpoint: median tumor weight (est.), dose: 50.0 mg/kg/injection, schedule: Q07DX005 (ip), vehicle: saline with Tween-80); 68 % of control (endpoint: median tumor weight (est.), dose: 100.0 mg/kg/injection, schedule: Q07DX005 (ip), vehicle: saline with Tween-80); 85 % of control (endpoint: median tumor weight (est.), dose: 200.0 mg/kg/injection, schedule: Q07DX005 (ip), vehicle: saline with Tween-80); 52 % of control (endpoint: median tumor weight (est.), dose: 400.0 mg/kg/injection, schedule: Q07DX005 (ip), vehicle: saline with Tween-80).
With `CC[C@@]1(O)C[C@H](OC2CC(N(C)C)C(OC3CC(O)C(OC4CCC(=O)C(C)O4)C(C)O3)C(C)O2)c2c(cc3c(c2O)C(=O)c2c(O)cccc2C3=O)[C@H]1C(=O)OC` (stereo partly specified), the T/C was 108 % of control (endpoint: mean tumor weight, dose: 0.75 mg/kg/injection, schedule: Q01DX009 (ip), vehicle: saline); 75 % of control (endpoint: mean tumor weight, dose: 1.5 mg/kg/injection, schedule: Q01DX009 (ip), vehicle: saline); 35 % of control (endpoint: mean tumor weight, dose: 3.0 mg/kg/injection, schedule: Q01DX009 (ip), vehicle: saline); 5 % of control (endpoint: mean tumor weight, dose: 6.0 mg/kg/injection, schedule: Q01DX009 (ip), vehicle: saline); 122 % of control (endpoint: median tumor weight (est.), dose: 2.97 mg/kg/injection, schedule: Q07DX005 (ip), vehicle: water); 87 % of control (endpoint: median tumor weight (est.), dose: 4.45 mg/kg/injection, schedule: Q07DX005 (ip), vehicle: water). Also, the T/C is 92 % of control (endpoint: median tumor weight (est.), dose: 6.67 mg/kg/injection, schedule: Q07DX005 (ip), vehicle: water); 61 % of control (endpoint: median tumor weight (est.), dose: 10.0 mg/kg/injection, schedule: Q07DX005 (ip), vehicle: water); 11 % of control (endpoint: median tumor weight (est.), dose: 15.0 mg/kg/injection, schedule: Q07DX005 (ip), vehicle: water).
Take `CC(C)CCCCCCCCCCCCC(=O)NCC(=O)NC1C(C)OC(Nc2ncnc3nc[nH]c23)C(O)C1O` (stereo unspecified): the T/C was 51 % of control (endpoint: median tumor weight (est.), dose: 8.0 mg/kg/injection, schedule: Q07DX005 (ip), vehicle: distilled water + Tween-80) and 12 % of control (endpoint: median tumor weight (est.), dose: 16.0 mg/kg/injection, schedule: Q07DX005 (ip), vehicle: distilled water + Tween-80).
As for `O=C(Nc1nncs1)c1cccs1`, the T/C under setting [4] is 92 % of control and 100 % of control.
Turning to `OC(CCl)CN1CC[N+]2(CC1)CC[N+]1(CCN(CC(O)CCl)CC1)CC2` (stereo unspecified), the T/C is, setting by setting: (endpoint: median tumor weight (est.), dose: 12.5 mg/kg/injection, schedule: Q07DX005 (ip), vehicle: saline) 57 % of control; (endpoint: median tumor weight (est.), dose: 25.0 mg/kg/injection, schedule: Q07DX005 (ip), vehicle: saline) 67 % of control; (endpoint: median tumor weight (est.), dose: 50.0 mg/kg/injection, schedule: Q07DX005 (ip), vehicle: saline) 80 % of control; (endpoint: median tumor weight (est.), dose: 100.0 mg/kg/injection, schedule: Q07DX005 (ip), vehicle: saline) 43 % of control; (endpoint: median tumor weight (est.), dose: 200.0 mg/kg/injection, schedule: Q07DX005 (ip), vehicle: saline) 36 % of control; (endpoint: median tumor weight (est.), dose: 400.0 mg/kg/injection, schedule: Q07DX005 (ip), vehicle: saline) 11 % of control. Moreover, the T/C was 101 % of control (endpoint: median tumor weight change, dose: 50.0 mg/kg/injection, schedule: Q01DX001 (ip), vehicle: saline); 111 % of control (endpoint: median tumor weight change, dose: 100.0 mg/kg/injection, schedule: Q01DX001 (ip), vehicle: saline); 96 % of control and 119 % of control (endpoint: median tumor weight change, dose: 200.0 mg/kg/injection, schedule: Q01DX001 (ip), vehicle: saline); 49 % of control and 56 % of control (endpoint: median tumor weight change, dose: 800.0 mg/kg/injection, schedule: Q01DX001 (ip), vehicle: saline).
In the case of `Nc1ccn([C@@H](C=O)O[C@@H](C=O)CO)c(=O)n1`, the T/C is, setting by setting: (endpoint: median tumor weight (est.), dose: 25.0 mg/kg/injection, schedule: Q07DX005 (ip), vehicle: suspension in saline) 122 % of control; (endpoint: median tumor weight (est.), dose: 50.0 mg/kg/injection, schedule: Q07DX005 (ip), vehicle: suspension in saline) 188 % of control; (endpoint: median tumor weight (est.), dose: 100.0 mg/kg/injection, schedule: Q07DX005 (ip), vehicle: suspension in saline) 151 % of control; (endpoint: median tumor weight (est.), dose: 200.0 mg/kg/injection, schedule: Q07DX005 (ip), vehicle: suspension in saline) 105 % of control.
As for `Cc1ccc2c(ccc(CC(=S)[S-])[n+]2C)c1`, the T/C runs as follows: under setting [5], 72 % of control and 97 % of control; under setting [6], 90 % of control; under setting [7], 102 % of control and 121 % of control; under setting [8], 46 % of control and 71 % of control; (endpoint: median tumor weight (est.), dose: 200.0 mg/kg/injection, schedule: Q07DX005 (ip), vehicle: Klucel (hydroxypropylcellulose) (HPC)) 32 % of control.
Take `O=S(CCCl)CCCl`: the T/C was 75 % of control (endpoint: median tumor weight (est.), dose: 1.56 mg/kg/injection, schedule: Q07DX005 (ip), vehicle: Klucel (hydroxypropylcellulose) (HPC)); 100 % of control (endpoint: median tumor weight (est.), dose: 3.12 mg/kg/injection, schedule: Q07DX005 (ip), vehicle: Klucel (hydroxypropylcellulose) (HPC)); 230 % of control (endpoint: median tumor weight (est.), dose: 6.25 mg/kg/injection, schedule: Q07DX005 (ip), vehicle: Klucel (hydroxypropylcellulose) (HPC)); 91 % of control under setting [5].
Turning to `NC(CNC(=O)CBr)C(=O)O` (stereo unspecified), the T/C (endpoint: median tumor weight change, dose: 62.5 mg/kg/injection, schedule: Q01DX001 (ip), vehicle: water) is 95 % of control and the T/C (endpoint: median tumor weight change, dose: 125.0 mg/kg/injection, schedule: Q01DX001 (ip), vehicle: water) is 77 % of control.
Regarding `COc1ccc(CC2C(=O)NC(C)C(=O)N(C)C3C(=O)N(C)C(Cc4ccc(O)c(c4)Oc4ccc(cc4)C3O)C(=O)NC(C)C(=O)NC(C)C(=O)N2C)cc1` (stereo unspecified), the T/C runs as follows: (endpoint: median tumor weight (est.), dose: 0.12 mg/kg/injection, schedule: Q07DX005 (ip), vehicle: suspension in saline) 116 % of control; (endpoint: median tumor weight (est.), dose: 0.25 mg/kg/injection, schedule: Q07DX005 (ip), vehicle: suspension in saline) 93 % of control; (endpoint: median tumor weight (est.), dose: 0.5 mg/kg/injection, schedule: Q07DX005 (ip), vehicle: suspension in saline) 95 % of control; (endpoint: median tumor weight (est.), dose: 1.0 mg/kg/injection, schedule: Q07DX005 (ip), vehicle: suspension in saline) 94 % of control; (endpoint: median tumor weight (est.), dose: 2.0 mg/kg/injection, schedule: Q07DX005 (ip), vehicle: suspension in saline) 99 % of control; (endpoint: median tumor weight (est.), dose: 4.0 mg/kg/injection, schedule: Q07DX005 (ip), vehicle: suspension in saline) 114 % of control.
